The values below come from US6548270B1, “DNA encoding human acid-sensing ion channel BNaC4 (ASIC4)” (Ortho-McNeil Pharmaceutical, Inc., priority 2000, dated 2003).

In one experiment the test system is ASIC2a. As to conditions: ASIC2a gain of function mutant channels; cited from earlier work.
In the next experiment the target is T1, human BNaC4 (Homo sapiens, UniProt Q96FT7).
T1 sequence (Q96FT7 1-539): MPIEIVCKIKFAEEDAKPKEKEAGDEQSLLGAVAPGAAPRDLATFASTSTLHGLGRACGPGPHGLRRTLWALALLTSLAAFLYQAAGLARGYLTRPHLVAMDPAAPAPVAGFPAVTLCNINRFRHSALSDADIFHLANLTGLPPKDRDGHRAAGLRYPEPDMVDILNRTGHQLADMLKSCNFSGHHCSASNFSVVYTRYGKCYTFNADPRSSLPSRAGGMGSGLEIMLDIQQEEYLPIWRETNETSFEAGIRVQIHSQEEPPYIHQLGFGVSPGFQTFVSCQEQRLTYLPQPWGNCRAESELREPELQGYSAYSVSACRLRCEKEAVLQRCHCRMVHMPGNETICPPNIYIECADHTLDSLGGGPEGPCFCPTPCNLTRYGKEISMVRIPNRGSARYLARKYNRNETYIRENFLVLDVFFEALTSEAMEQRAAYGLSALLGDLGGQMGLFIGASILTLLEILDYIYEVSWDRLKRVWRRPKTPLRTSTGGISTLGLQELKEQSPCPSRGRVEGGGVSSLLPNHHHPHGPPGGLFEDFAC
The experiment can be described thus: pH 5.5-induced whole cell current in Xenopus oocytes injected with human BNaC4 cRNA (two-electrode voltage clamp). Type of experiment: cell-based. The conditions noted are these: 200 uM amiloride, bath application; oocytes injected with hBNaC4 cRNA; n=3. On the procedure:
Xenopus laevis oocytes were prepared and injected using standard methods previously described and known in the art (Fraser et al., 1993). Ovarian lobes from adult female Xenopus laevis (Nasco, Fort Atkinson, Wis.) were teased apart, rinsed several times in nominally Ca-free saline containing: 82.5 mM NaCl, 2.5 mM KCl, 1 mM MgCl2, 5 mM HEPES, adjusted to pH 7.0 with NaOH (OR-2), and gently shaken in OR-2 containing 0.2% collagenase Type 1 (ICN Biomedicals, Aurora, Ohio) for 2-5 hours. When approximately 50% of the follicular layers were removed, Stage V and VI oocytes were selected and rinsed in media consisting of 75% OR-2 and 25% ND-96. […]
Oocytes were injected with 50 nl of the human BNaC4 RNA (0.002-5 ng). […] Whole cell agonist (protons)-induced currents were measured 1-6 days after injection with a conventional two-electrode voltage clamp (GeneClamp50O, Axon Instruments, Foster City, Calif.) using standard methods previously described and known in the art (Dascal, Nathan (1987) The use of Xenopus oocytes for the study of ion channels. CRC Critical reviews in Biochemistry 22:317-387). […]
Functional expression of human BNaC4 in Xenopus oocytes is shown: activation by pH 5.5. […] The oocyte was recorded 3 days after injection of 2 ng hBNaC CRNA. […] The BNaC4 oocytes tested produced currents of at least +60 nA (measured at +80 mV at the end of a voltage ramp protocol) (range +60 to +1240 nA). […]
For orientation: Two-electrode voltage clamp holds a large cell at a set potential and records current.

For the compound `N=C(N)NC(=O)c1nc(Cl)c(N)nc1N` [amiloride], the “Amiloride sensitivity (block of channels)” value with ASIC2a is “Amiloride blocked gain of function”. Further, at human BNaC4, the “block of the pH5.5-induced fast increase in conductance” value is 40+/−13%.
